In ChEMBL document CHEMBL1909046, “DrugMatrix in vitro pharmacology data”:
pIC50, pKi: −log10 of the molar value.

What was measured:
[1] = target: T1, Alpha-1B adrenergic receptor (Rattus norvegicus, UniProt P15823); test: DRUGMATRIX: Alpha-1B adrenergic receptor radioligand binding (ligand: prazosin); format: cell membranes, Wistar, Liver, Membrane; conditions: Not Active = under 50% inhibition at 10 µM
T1 sequence (P15823 whole entry): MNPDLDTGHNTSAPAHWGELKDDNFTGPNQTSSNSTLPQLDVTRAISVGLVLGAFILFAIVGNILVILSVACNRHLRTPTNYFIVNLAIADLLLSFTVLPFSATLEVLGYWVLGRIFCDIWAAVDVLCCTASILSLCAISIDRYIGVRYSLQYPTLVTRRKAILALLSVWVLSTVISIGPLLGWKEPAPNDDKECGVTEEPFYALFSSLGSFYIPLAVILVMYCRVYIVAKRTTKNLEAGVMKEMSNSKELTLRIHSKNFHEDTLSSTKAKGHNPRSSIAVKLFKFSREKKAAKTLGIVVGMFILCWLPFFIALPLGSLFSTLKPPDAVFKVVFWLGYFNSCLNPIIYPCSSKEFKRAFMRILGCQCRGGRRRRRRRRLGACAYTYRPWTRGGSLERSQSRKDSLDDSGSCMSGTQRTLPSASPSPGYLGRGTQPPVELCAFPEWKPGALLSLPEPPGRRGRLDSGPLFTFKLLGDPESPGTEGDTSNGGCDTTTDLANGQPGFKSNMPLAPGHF

D(1A) dopamine receptor = D(1A) dopamine receptor (Homo sapiens, UniProt P21728); test: DRUGMATRIX: Dopamine D1 radioligand binding (ligand: [3H] SCH-23390); format: cell membranes, CHO, Membrane; conditions: cho; Not Active = under 50% inhibition at 10 µM
Sequence of D(1A) dopamine receptor (P21728 whole entry): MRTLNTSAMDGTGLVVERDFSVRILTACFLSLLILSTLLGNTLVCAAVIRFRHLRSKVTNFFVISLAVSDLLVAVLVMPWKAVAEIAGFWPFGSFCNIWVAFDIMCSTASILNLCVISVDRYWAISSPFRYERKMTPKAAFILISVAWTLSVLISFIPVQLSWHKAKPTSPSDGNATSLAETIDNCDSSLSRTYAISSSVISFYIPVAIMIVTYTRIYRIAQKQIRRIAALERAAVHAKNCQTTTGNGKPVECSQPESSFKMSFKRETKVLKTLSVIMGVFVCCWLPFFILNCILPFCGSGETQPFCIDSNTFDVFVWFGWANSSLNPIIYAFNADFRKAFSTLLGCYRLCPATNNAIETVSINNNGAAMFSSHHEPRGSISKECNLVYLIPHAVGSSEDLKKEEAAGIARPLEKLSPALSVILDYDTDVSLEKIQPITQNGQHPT

[2] = target: T2, Muscarinic acetylcholine receptor M4 (Homo sapiens, UniProt P08173); format: cell membranes, CHO-K1, Membrane; conditions: for IC50: cho-k1; as to all read-outs here: in other assays of this panel Not Active means under 50% inhibition at 10 µM
T2 sequence (P08173 whole entry): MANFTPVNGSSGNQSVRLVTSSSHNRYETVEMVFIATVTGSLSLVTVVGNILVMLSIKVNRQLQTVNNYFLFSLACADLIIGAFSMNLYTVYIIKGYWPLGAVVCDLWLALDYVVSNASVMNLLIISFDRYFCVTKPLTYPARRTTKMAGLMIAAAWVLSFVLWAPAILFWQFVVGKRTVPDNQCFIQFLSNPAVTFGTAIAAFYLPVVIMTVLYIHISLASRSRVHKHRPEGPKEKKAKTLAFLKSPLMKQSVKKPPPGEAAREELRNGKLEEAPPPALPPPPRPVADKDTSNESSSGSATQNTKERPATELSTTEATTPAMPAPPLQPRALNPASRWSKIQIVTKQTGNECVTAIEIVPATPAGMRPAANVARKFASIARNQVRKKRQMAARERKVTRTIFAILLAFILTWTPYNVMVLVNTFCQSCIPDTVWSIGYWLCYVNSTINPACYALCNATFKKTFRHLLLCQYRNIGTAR

[3] = target: T3, Nitric oxide synthase, inducible (Mus musculus, UniProt P29477); design: species or system Escherichia coli;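 also: inhibition of iNOS enzyme activity measured with L-arginine as substrate; in other assays of this panel Not Active means under 50% inhibition at 10 µM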
T3 sequence (P29477 whole entry): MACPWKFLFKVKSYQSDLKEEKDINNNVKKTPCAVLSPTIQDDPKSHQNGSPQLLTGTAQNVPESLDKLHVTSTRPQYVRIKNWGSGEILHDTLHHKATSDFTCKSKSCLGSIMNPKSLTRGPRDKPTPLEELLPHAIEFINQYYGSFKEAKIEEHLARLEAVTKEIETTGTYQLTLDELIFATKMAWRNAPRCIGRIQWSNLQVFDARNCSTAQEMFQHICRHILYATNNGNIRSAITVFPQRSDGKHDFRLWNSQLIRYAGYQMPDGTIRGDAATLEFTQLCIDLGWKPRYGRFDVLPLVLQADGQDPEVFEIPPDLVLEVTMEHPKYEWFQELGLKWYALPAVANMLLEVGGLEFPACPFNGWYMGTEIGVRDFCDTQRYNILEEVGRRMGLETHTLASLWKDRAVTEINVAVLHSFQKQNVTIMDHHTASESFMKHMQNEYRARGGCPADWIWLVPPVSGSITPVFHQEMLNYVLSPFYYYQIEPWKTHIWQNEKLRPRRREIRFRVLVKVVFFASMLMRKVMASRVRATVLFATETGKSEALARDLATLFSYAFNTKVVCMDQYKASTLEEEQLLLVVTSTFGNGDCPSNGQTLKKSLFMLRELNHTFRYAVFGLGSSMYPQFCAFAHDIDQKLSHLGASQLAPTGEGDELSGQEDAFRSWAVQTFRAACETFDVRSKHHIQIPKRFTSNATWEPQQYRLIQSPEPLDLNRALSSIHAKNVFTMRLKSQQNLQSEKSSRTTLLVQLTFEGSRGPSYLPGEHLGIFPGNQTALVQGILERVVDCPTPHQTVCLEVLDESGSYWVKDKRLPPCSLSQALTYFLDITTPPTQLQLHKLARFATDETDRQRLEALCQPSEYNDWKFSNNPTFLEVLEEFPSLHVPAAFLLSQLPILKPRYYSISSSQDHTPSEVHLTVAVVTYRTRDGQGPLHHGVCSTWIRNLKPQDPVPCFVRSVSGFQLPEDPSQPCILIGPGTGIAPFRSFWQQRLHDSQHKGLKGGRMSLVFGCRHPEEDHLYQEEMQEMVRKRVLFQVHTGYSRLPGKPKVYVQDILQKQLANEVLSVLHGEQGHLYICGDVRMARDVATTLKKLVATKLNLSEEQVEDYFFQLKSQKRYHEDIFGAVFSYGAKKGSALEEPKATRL

[4] = DRUGMATRIX: Phosphodiesterase PDE3 enzyme inhibition (substrate: [3H]cAMP + cAMP); format: tissue-based, Homo sapiens; conditions: platelet; Not Active = under 50% inhibition at 10 µM
Cathepsin G = target: T4, Cathepsin G (Homo sapiens, UniProt P08311); format: tissue-based; conditions: neutrophil;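 also: inhibition of Cathepsin G enzyme activity, tested on an AMC-conjugated peptide substrate; in other assays of this panel Not Active means under 50% inhibition at 10 µM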
T4 sequence (P08311 whole entry): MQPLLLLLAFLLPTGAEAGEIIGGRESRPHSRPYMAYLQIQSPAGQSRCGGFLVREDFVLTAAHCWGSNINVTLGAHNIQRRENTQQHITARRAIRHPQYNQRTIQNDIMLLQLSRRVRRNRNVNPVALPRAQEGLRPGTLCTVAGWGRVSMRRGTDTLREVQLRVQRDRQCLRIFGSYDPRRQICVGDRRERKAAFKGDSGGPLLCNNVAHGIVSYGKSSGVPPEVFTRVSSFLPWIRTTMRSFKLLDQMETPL

[5] = target: Matrix metalloproteinase-9 (Homo sapiens, UniProt P14780); format: cell-based;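 also: inhibition of isolated MMP-9 enzyme activity toward a synthetic peptide substrate, from the DrugMatrix protease screening panel; in other assays of this panel Not Active means under 50% inhibition at 10 µM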
Sequence of Matrix metalloproteinase-9 (P14780 whole entry): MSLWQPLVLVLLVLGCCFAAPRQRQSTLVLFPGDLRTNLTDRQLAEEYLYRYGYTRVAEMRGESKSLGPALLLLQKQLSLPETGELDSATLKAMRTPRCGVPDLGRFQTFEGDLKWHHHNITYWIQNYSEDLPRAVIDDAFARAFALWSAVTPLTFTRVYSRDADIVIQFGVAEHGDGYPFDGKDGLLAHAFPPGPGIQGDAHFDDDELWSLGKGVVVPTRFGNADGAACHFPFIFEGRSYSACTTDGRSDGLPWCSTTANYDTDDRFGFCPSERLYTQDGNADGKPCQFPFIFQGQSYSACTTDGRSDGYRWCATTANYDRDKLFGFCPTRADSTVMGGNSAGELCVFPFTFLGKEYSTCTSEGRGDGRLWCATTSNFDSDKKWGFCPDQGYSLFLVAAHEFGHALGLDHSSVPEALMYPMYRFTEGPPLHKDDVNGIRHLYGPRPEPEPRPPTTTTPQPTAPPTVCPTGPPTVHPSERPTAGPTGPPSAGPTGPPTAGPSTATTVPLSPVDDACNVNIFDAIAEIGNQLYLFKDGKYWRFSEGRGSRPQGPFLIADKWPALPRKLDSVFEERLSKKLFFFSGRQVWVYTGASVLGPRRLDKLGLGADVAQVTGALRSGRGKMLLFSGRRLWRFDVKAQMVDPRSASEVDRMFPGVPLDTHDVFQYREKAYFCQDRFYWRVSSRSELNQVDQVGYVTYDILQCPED

[6] = target: Protein kinase C alpha type (Homo sapiens, UniProt P17252); format: cell-based; conditions: sf9
[7] = target: Epidermal growth factor receptor (Homo sapiens, UniProt P00533); test: DRUGMATRIX: Protein Tyrosine Kinase, EGF Receptor enzyme inhibition (substrate: Poly(Glu:Tyr)); format: cell-based, Insect cells; conditions: Not Active = under 50% inhibition at 10 µM; for IC50: insect cells
Sequence of Epidermal growth factor receptor (P00533 whole entry): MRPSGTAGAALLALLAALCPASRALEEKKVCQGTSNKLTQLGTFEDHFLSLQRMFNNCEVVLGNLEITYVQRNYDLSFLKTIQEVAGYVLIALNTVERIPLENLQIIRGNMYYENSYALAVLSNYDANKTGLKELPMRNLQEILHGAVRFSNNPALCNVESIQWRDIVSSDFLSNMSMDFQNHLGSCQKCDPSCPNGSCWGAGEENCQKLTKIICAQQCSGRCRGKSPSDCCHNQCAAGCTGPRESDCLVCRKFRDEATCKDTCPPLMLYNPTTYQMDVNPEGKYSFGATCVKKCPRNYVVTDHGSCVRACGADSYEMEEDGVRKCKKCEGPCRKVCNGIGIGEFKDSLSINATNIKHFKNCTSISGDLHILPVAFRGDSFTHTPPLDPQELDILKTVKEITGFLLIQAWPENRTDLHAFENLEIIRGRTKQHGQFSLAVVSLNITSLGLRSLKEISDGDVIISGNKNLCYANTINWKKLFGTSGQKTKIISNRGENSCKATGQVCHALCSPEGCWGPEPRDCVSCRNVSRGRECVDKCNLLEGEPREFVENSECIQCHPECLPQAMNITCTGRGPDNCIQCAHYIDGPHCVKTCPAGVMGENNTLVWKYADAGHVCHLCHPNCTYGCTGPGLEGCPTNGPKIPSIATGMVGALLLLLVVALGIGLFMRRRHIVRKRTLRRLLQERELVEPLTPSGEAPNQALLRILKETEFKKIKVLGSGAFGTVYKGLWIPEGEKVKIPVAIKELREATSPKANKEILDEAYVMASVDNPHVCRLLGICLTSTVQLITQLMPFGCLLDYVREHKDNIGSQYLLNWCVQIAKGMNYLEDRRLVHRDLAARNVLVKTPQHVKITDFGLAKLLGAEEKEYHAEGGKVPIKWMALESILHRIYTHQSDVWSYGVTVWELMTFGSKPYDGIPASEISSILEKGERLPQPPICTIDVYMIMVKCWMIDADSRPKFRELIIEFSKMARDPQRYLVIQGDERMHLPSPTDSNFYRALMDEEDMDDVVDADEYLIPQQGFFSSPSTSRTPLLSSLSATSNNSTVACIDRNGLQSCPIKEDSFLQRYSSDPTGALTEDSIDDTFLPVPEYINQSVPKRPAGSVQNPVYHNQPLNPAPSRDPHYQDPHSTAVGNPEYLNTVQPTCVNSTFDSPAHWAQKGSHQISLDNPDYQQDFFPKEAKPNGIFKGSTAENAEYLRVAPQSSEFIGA

[8] = DRUGMATRIX: Purinergic P2X radioligand binding (ligand: [3H] alpha, beta-Methylene-ATP); format: cell membranes, Oryctolagus cuniculus, New Zealand albino, Urinary bladder, Membrane; conditions: Not Active = under 50% inhibition at 10 µM

SMILES	IC50 [1]	IC50 (D(1A) dopamine receptor)	IC50 [2]	IC50 [3]	IC50 [4]	Ki [4]	IC50 (Cathepsin G)	IC50 [5]	IC50 [6]	IC50 [7]	IC50 [8]	Ki [8]	pIC50 ([1]; read-out: IC50)	pKi ([1]; read-out: Ki)	pIC50 ([2]; read-out: IC50)	pKi ([2]; read-out: Ki)	Ki [3]	pIC50 ([7]; read-out: IC50)
CC1=C(/C=C/C(C)=C/C=C/C(C)=C\C(=O)O)C(C)(C)CCC1 [ISOTRETINOIN]	Not Active	Not Active	Not Active	Not Active	Not Active	Not Active	Not Active	Not Active	Not Active	Not Active	Not Active	Not Active	–	–	–	–	–	–
CO[C@@H]1[C@@H](O[C@@H]2O[C@H](C)[C@@H](O[C@H]3C[C@@](C)(O)[C@@H](OC(=O)CC(C)C)[C@H](C)O3)[C@H](N(C)C)[C@H]2O)[C@@H](CC=O)C[C@@H](C)[C@@H](O)/C=C/C=C/C[C@@H](C)OC(=O)C[C@H]1O [KITASAMYCIN]	Not Active	Not Active	Not Active	Not Active	Not Active	Not Active	Not Active	Not Active	Not Active	Not Active	Not Active	Not Active	–	–	–	–	–	–
C[C@]12Cc3c[nH]nc3C[C@@H]1CC[C@@H]1[C@@H]2CC[C@@]2(C)[C@H]1CC[C@]2(C)O [STANOZOLOL]	Not Active	Not Active	Not Active	Not Active	Not Active	Not Active	Not Active	Not Active	Not Active	Not Active	Not Active	Not Active	–	–	–	–	–	–
CCOC(=O)[C@H](CCc1ccccc1)N[C@@H](C)C(=O)N1[C@H](C(=O)O)C[C@@H]2CCC[C@@H]21	Not Active	Not Active	Not Active	Not Active	Not Active	Not Active	Not Active	Not Active	Not Active	Not Active	Not Active	Not Active	–	–	–	–	–	–
CN[C@@H]1[C@@H](O)[C@@H](O[C@@H]2[C@@H](O)[C@H](O[C@H]3OC(CN)=CC[C@H]3N)[C@@H](N)C[C@H]2N)OC[C@]1(C)O [SISOMICIN]	Not Active	Not Active	Not Active	Not Active	Not Active	Not Active	Not Active	Not Active	Not Active	Not Active	Not Active	Not Active	–	–	–	–	–	–
Clc1ccc(C(c2ccccc2Cl)C(Cl)Cl)cc1 (configuration not stated) [MITOTANE]	Not Active	Not Active	Not Active	Not Active	Not Active	Not Active	Not Active	Not Active	Not Active	Not Active	Not Active	Not Active	–	–	–	–	–	–
CN(C)[C@@H]1C(O)=C(C(N)=O)C(=O)[C@@]2(O)C(O)=C3C(=O)c4c(O)cccc4[C@@](C)(O)[C@H]3C[C@@H]12 [TETRACYCLINE]	Not Active	Not Active	Not Active	Not Active	Not Active	Not Active	Not Active	Not Active	Not Active	Not Active	Not Active	Not Active	–	–	–	–	–	–
COC(=O)[C@@H]1[C@H]2C[C@H]3c4[nH]c5ccccc5c4CCN3C[C@@H]2CC[C@@H]1O [YOHIMBINE]	–	Not Active	Not Active	Not Active	Not Active	Not Active	Not Active	Not Active	Not Active	Not Active	Not Active	Not Active	5.93	6.18	–	–	–	–
CC(C)(C)NCC(O)c1ccc(O)c(CO)c1 (configuration not stated) [ALBUTEROL]	Not Active	Not Active	Not Active	Not Active	Not Active	Not Active	Not Active	Not Active	Not Active	Not Active	Not Active	Not Active	–	–	–	–	–	–
O=C1c2c(O)ccc(O)c2C(=O)c2c(NCCNCCO)ccc(NCCNCCO)c21 [MITOXANTRONE]	Not Active	Not Active	–	–	Not Active	Not Active	Not Active	Not Active	Not Active	–	Not Active	Not Active	–	–	6.19	7.05	Not Active	5.27
